Values of other authors, collected in US20180103657A1, “FROZEN CONFECTION” (Conopco, Inc., d/b/a UNILEVER, priority 2015, published 2018).

Conditions: partition coefficient at 20 degrees centigrade

SMILES: CCCC(=O)OCC [Ethyl butyrate]
- Log P [flavour compounds]: 1.8
